Measured values reported in patent US12590062B2, “PD-1/PD-L1 inhibitors” (Gilead Sciences, Inc., priority 2017, dated 2026).
pEC50, pIC50: −log10 of the molar value.

Columns and labels:
PD-1/PD-L1 interaction = molecular target: T1, PD-1/PD-L1 interaction (Homo sapiens, UniProt Q9NZQ7); assay: PD-1/PD-L1 NFAT reporter co-culture assay; type: cell-based; details: Jurkat PD-1 NFAT-luciferase cells co-cultured with aAPC-PD-L1 CHO cells, 6 hrs at 37° C.; read-out: EC50 NFAT Luciferase
T1 construct: expressed in transfected cells; host or cells: CHO cells (aAPC-PD-L1) co-cultured with Jurkat cells overexpressing PD-1 and an NFAT-luciferase reporter
T1 sequence (Q9NZQ7 19-290): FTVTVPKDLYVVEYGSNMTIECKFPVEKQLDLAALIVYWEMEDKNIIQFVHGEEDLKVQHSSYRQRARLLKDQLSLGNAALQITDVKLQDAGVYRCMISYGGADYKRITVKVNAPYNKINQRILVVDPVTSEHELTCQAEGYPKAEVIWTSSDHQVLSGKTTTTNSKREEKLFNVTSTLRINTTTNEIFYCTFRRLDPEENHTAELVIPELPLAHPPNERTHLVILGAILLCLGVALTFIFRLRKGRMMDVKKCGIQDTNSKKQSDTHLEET
Summary of the method: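 Restoration of TCR-driven NFAT luciferase signal: 6 h, 37 °C co-culture of PD-1 Jurkat reporter cells (pre-mixed with compound) on overnight-seeded PD-L1/anti-CD3 CHO monolayer. ONE-Glo luminescence; dose-response fitted to four-parameter equation for EC50.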

PD-1/PD-L1 = PD-1/PD-L1 (Homo sapiens, UniProt Q9NZQ7); assay: PD-1/PD-L1 biochemical protein-protein interaction assay (ALPHA); type: binding; details: 0.3 nM His tagged PD-L1, 2.5 nM biotinylated Fc-PD-1, 60 minutes at 25° C., read-out: IC50 PD-L1-PD-1 Alpha IC50-mono PD-L1-fcP-D1
PD-1/PD-L1, sequence (Q9NZQ7 19-238 limits assumed): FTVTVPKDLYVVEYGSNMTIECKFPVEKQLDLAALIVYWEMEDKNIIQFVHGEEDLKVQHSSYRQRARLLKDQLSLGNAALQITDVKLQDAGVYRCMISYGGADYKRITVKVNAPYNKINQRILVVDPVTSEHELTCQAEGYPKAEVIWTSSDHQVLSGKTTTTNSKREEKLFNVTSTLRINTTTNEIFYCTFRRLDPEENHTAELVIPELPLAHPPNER
Summary of the method: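 Compound blockade of the PD-1/PD-L1 extracellular-domain interaction measured as reduced ALPHA signal after 60 min at 25 °C, pH 7.4 Hepes buffer with EDTA, Tween 20 and BSA. Final proteins: His-tagged PD-L1 0.3 nM, biotinylated Fc-PD-1 2.5 nM; four-parameter curve fit gives IC50.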

PD-L1 = molecular target: T2, PD-L1 (Homo sapiens, UniProt Q9NZQ7); assay: PD-L1/PD-L1 dimerization biochemical protein-protein interaction assay (ALPHA); type: binding; details: compound-induced PD-L1 dimerization, head prints '1 nM' (0.5 nM His-tagged PD-L1 and 0.5 nM FLAG-tagged PD-L1), read-out: AC50 PDL1 Dimer Alpha 1 nM
T2 construct: determine if they can specifically dimerize the extracellular domains of PD-L1
T2 sequence (Q9NZQ7 19-238 limits assumed): as above
T2 sequence (Q9NZQ7 19-238 limits assumed): as above
Summary of the method: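 After 2 h at 25 °C with compound, His- and FLAG-tagged PD-L1 ECDs (each 0.5 nM final; 25 mM Hepes pH 7.4, 150 mM NaCl) were detected by sequential anti-His acceptor and anti-FLAG donor bead incubations. Dose-response curves fitted to four-parameter equation for AC50.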

pEC50 (PD-1/PD-L1 interaction) | pIC50 (PD-1/PD-L1) | AC50 (PD-L1) | SMILES
6.89 | 9.37 | 453 nM | Cc1c(COc2cc(OCc3cncc(C#N)c3)c(CNC[C@@H](O)CC(=O)O)cc2Cl)cccc1-c1cccc(-c2ccc(CN[C@H]3CCCNC3=O)cc2)c1C [Example 572]
6.92 | 9.81 | 215 nM | Cc1c(COc2cc(OCc3cncc(C#N)c3)c(CN[C@@](C)(CO)C(=O)O)cc2Cl)cccc1-c1cccc(-c2ccc(CN[C@H]3CCCNC3=O)cc2)c1C [Example 573]
7.14 | 10.15 | 56 nM | Cc1c(COc2cc(OCc3cncc(C#N)c3)c(CNC[C@@H](O)CC(=O)O)cc2Cl)cccc1-c1cccc(-c2ccc(CNC[C@@H]3CCC(=O)N3)cc2)c1C [Example 574]
7.47 | 10.14 | 40.6 nM | Cc1c(COc2cc(OCc3cncc(C#N)c3)c(CN[C@@](C)(CO)C(=O)O)cc2Cl)cccc1-c1cccc(-c2ccc(CNC[C@@H]3CCC(=O)N3)cc2)c1C [Example 575]
7.49 | 9.77 | 24.3 nM | N#Cc1cc(C#N)cc(COc2nc(OCc3cccc(-c4cccc(-c5ccc(CNC[C@@H]6CCC(=O)N6)cc5)c4Cl)c3Cl)c(Cl)cc2CNC[C@@H](O)CC(=O)O)c1 [Example 576]
7.80 | 10.19 | 9.73 nM | C[C@@](CO)(NCc1cc(Cl)c(OCc2cccc(-c3cccc(-c4ccc(CNC[C@@H]5CCC(=O)N5)cc4)c3Cl)c2Cl)nc1OCc1cc(C#N)cc(C#N)c1)C(=O)O [Example 577]
6.87 | 9.95 | 37.2 nM | CC(C)(NCc1cc(Cl)c(OCc2cccc(-c3cccc(-c4ccc(OCCNCCO)cc4)c3Cl)c2Cl)nc1OCc1cc(C#N)cc(C#N)c1)C(=O)O [Example 578]
6.72 | 10.19 | 34.8 nM | Cc1c(COc2cc(OCc3cncc(C#N)c3)c(CN[C@@](C)(CO)C(=O)O)cc2Cl)cccc1-c1cccc(-c2ccc(CN3CC4(CCC(=O)N4)C3)cc2)c1C [Example 579]
6.70 | 9.67 | 231 nM | Cc1c(COc2cc(OCc3cncc(C#N)c3)c(CN[C@@](C)(CO)C(=O)O)cc2Cl)cccc1-c1cccc(-c2ccc(CNCCn3ccnn3)cc2)c1C [Example 580]
6.80 | 9.74 | 60.3 nM | Cc1c(COc2nc(OCc3cncc(C#N)c3)c(CN[C@@](C)(CO)C(=O)O)cc2Cl)cccc1-c1cccc(-c2ccc(OCCNCCO)cc2)c1C [Example 581]
6.83 | 8.88 | 347 nM | Cc1c(COc2cc(OCc3cncc(C#N)c3)c(CN3CC[C@@H](O)C3)cc2Cl)cccc1-c1cccc(-c2ccc(CN3CC(CC(=O)O)C3)cc2)c1C [Example 582]
6.74 | 9.53 | 38.3 nM | Cc1c(COc2cc(OCc3cncc(C#N)c3)c(CN[C@@H]3CCC[C@@H]3O)cc2Cl)cccc1-c1cccc(-c2ccc3c(c2)CCC3N2CC3(CC(C(=O)O)C3)C2)c1C (stereo partly drawn) [Example 583]
6.83 | 9.91 | 38.6 nM | Cc1c(COc2cc(OCc3cncc(C#N)c3)c(CN[C@@H]3CCC[C@@H]3O)cc2Cl)cccc1-c1cccc(-c2ccc3c(c2)CCC3N2CC[C@H](CC(=O)O)C2)c1C (stereo partly drawn) [Example 584]
7.35 | 9.84 | 324 nM | CC(=O)N1CC2(CN(Cc3cn(C)c4nc(-c5cccc(-c6cccc(-c7cnc8c(CN9CC%10(C9)CN(C(C)=O)C%10)cn(C)c8n7)c6Cl)c5Cl)cnc34)C2)C1 [Example 587]
7.30 | 10.09 | 206 nM | Cn1cc(CN2CC3(CNC(=O)C3)C2)c2ncc(-c3cccc(-c4cccc(-c5cnc6c(CN7CC8(CNC(=O)C8)C7)cn(C)c6n5)c4Cl)c3Cl)nc21 [Example 588]
7.05 | 9.79 | 164 nM | Cn1cc(CN2CC3(CCC(=O)N3)C2)c2ncc(-c3cccc(-c4cccc(-c5cnc6c(CN7CC8(CCC(=O)N8)C7)cn(C)c6n5)c4Cl)c3Cl)nc21 [Example 589]

pEC50 (PD-1/PD-L1 interaction) | pIC50 (PD-1/PD-L1) | AC50 (PD-L1) | SMILES
6.85 | 9.73 | 134 nM | COc1nc(-c2cccc(-c3cccc(COc4nc(OC)c(CNC[C@@H](O)CC(=O)O)cc4Cl)c3Cl)c2Cl)ccc1CNC[C@@H]1CCC(=O)N1 [Example 590]
7.70 | 10.19 | 22.7 nM | COc1nc(O[C@H]2CCc3c(-c4cccc(-c5cc(C)c(CNC[C@@H]6CCC(=O)N6)c(OC)n5)c4Cl)cccc32)c(Cl)cc1CNC[C@@H]1CCC(=O)N1 [Example 591]
6.76 | 10.02 | 107 nM | Cc1c(COc2cc(OCc3cncc(C#N)c3)c(CNC[C@@H](O)CC(=O)O)cc2Cl)cccc1-c1cccc(-c2nc3ccc(CNC[C@@H](O)CC(=O)O)cc3o2)c1C [Example 592]
6.95 | 10.19 | 124 nM | Cc1c(COc2cc(OCc3cncc(C#N)c3)c(CNC[C@@H](O)CC(=O)O)cc2Cl)cccc1-c1cccc(-c2nc3cc(CNC[C@@H](O)CC(=O)O)ccc3o2)c1C [Example 593]
7.19 | 10.19 | 77 nM | Cc1c(COc2cc(OCc3cncc(C#N)c3)c(CNC[C@@H](O)CC(=O)O)cc2Cl)cccc1-c1cccc(-c2nc3ccc(CNC[C@@H](O)CC(=O)O)cn3n2)c1C [Example 595]
6.77 | 9.17 | 415 nM | COc1nc(-c2cccc(-c3cccc(-c4cnn(CCN)c4)c3Cl)c2Cl)ccc1CNC[C@@H]1CCC(=O)N1 [Example 596, (S)-5-((((6-(3′-(1-(2-aminoethyl)-1H-pyrazol-4-yl)-2,2′-dichloro-[1,1′-biphenyl]-3-yl)-2-methoxypyridin-3-yl)methyl)amino)methyl)pyrrolidin-2-one]
6.64 | 8.90 | 310 nM | COc1nc(-c2csc(-c3cccc(-c4ccc(CNC[C@@H]5CCC(=O)N5)c(OC)n4)c3Cl)c2)ccc1CNC[C@@H]1CCC(=O)N1 [Example 597, (S)-5-((((6-(2-chloro-3-(4-(6-methoxy-5-(((((S)-5-oxopyrrolidin-2-yl)methyl)amino)methyl)pyridin-2-yl)thiophen-2-yl)phenyl)-2-methoxypyridin-3-yl)methyl)amino)methyl)pyrrolidin-2-one]
5.74 | 8.52 | 480 nM | COc1nc(-c2cccc(-c3cccc(-c4ccc5c(ccn5CCN(C)C)c4)c3Cl)c2Cl)ccc1CNC[C@@H]1CCC(=O)N1 [Example 598, (S)-5-((((6-(2,2′-dichloro-3′-(1-(2-(dimethylamino)ethyl)-1H-indol-5-yl)-[1,1′-biphenyl]-3-yl)-2-methoxypyridin-3-yl)methyl)amino)methyl)pyrrolidin-2-one]
≤ 4.30 | 9.67 | 7930 nM | COc1nc(-c2cccc(-c3cccc(N4Cc5cc(CN6CC7(C6)CN(C(C)=O)C7)ccc5C4=O)c3Cl)c2Cl)ccc1CN1CC2(C1)CN(C(C)=O)C2 [Example 599, 5-((6-acetyl-2,6-diazaspiro[3.3]heptan-2-yl)methyl)-2-(3′-(5-((6-acetyl-2,6-diazaspiro[3.3]heptan-2-yl)methyl)-6-methoxypyridin-2-yl)-2,2′-dichloro-[1,1′-biphenyl]-3-yl)isoindolin-1-one]
6.62 | 9.41 | 261 nM | COc1nc(-c2cccc(-c3csc(-c4cnc(CNC[C@@H]5CCC(=O)N5)c(OC)n4)c3)c2Cl)ccc1CNC[C@@H]1CCC(=O)N1 [Example 600]
6.13 | 8.28 | 1130 nM | COc1nc(-c2ccc(-c3cccc(-c4ccc(CNC[C@@H]5CCC(=O)N5)c(OC)n4)c3Cl)s2)ccc1CNC[C@@H]1CCC(=O)N1 [Example 601]
6.62 | 9.63 | 124 nM | COc1nc(-c2cccc(-c3cccc(-c4cnc5c(CNC[C@H]6CCC(=O)N6)cn(C)c5c4)c3Cl)c2Cl)ccc1CNC[C@H]1CCC(=O)N1 [Example 602]
6.80 | 9.69 | 235 nM | COc1nc(-c2cccc(-c3cccc(-c4ccc5c(CNC[C@@H]6CCC(=O)N6)cc(=O)n(C)c5c4)c3Cl)c2Cl)ccc1CNC[C@@H]1CCC(=O)N1 [Example 603]
6.26 | 8.31 | 935 nM | COc1nc(-c2cccc(-c3cccc(-c4ccc5c(CNC[C@@H]6CCC(=O)N6)cccc5c4)c3Cl)c2Cl)ccc1CNC[C@@H]1CCC(=O)N1 [Example 604]
6.89 | 8.98 | 352 nM | COc1nc(-c2cccc(-c3cccc(-c4ccc5c(CNC[C@H]6CCC(=O)N6)cn(C)c5c4)c3Cl)c2Cl)ccc1CNC[C@H]1CCC(=O)N1 [Example 605]
≤ 4.30 | 8.21 | 558 nM | COc1nc(-c2cccc(-c3cccc(-c4ccc5[nH]c(CN(C)C)cc5c4)c3Cl)c2Cl)ccc1CNC[C@@H]1CCC(=O)N1 [Example 606]
